20 compounds from patent US20130252930A1 (BIOMARIN PHARMACEUTICAL INC., priority 2010, published 2013) can be followed below.

The target in assay [1] is T1, Cyp21 enzyme (Human HEK 293-Cyp21 stable transfected cells) (Homo sapiens, UniProt P08686).
T1 construct: expressed in transfected cells
T1 sequence (P08686 1-495): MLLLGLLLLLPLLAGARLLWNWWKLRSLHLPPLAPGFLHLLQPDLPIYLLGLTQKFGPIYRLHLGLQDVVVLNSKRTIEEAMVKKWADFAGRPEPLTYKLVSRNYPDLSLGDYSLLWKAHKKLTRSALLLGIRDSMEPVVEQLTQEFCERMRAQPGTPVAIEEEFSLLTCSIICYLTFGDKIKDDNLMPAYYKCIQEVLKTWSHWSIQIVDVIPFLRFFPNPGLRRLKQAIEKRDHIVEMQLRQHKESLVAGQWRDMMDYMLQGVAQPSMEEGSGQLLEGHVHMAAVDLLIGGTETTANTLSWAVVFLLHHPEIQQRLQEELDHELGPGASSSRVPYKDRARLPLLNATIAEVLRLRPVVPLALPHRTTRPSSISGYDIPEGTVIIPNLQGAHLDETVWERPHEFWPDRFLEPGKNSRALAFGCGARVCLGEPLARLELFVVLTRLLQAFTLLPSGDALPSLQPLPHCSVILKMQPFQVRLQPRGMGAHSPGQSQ
Briefly: CYP21-HEK293 enzymatic assay (IC50) (Biological Example 11). In kind it is cell-based.
Protocol: This assay was used to determine compound activity against Cyp21 enzyme. […] The next day, 20 μL medium was carefully removed and 10 μL of 10× pre-made compounds in DMEM+10% FBS+10% methanol was transferred to the wells to final concentrations of 1000, 100, 10, 1, or 0.1 nM. Mock treatment was 1% methanol in growth media and the cells were left at 37° C., 5% CO2 for 5 hr. After the incubation, 10 μL of substrate progesterone (Sigma) was added to the wells to make a final concentration of 10 μM. The cells were incubated the cells at 37° C. for 20 hr. At the end of incubation, 90 μL of conditioned media was removed to measure DOC level by ELISA.
The next day, the plates were washed twice with 250 μl of wash solution (0.015M PBS pH 7.4 containing 0.05% Tween 20). After being washed, the wells were blocked with 250 μL blocking buffer (3% BSA in 0.025M PBS, pH 7.4) at 37° C. for 2 h. The plates were washed again 3 times as before, and then 90 μL of sample /standards (prepared in complete growth media) was added into the appropriate wells followed by 10 μL of antibody solution (1:450 rabbit anti-DOC in 0.6% BSA/PBS). The plates were incubated at room temperature for 2 h on a shaker. The contents of the wells were removed and the plate was washed 4 times. After the final wash, 100 μL of secondary antibody (1:12000 HRP-goat-anti-rabbit IgG conjugate 0.6% BSA/PBS) was added into each well. […] The plate was washed again 4 times and 100 μL of TMB substrate solution was added to each well. The plate was incubated at room temperature for 10 min. 100 μL of stop solution was added to each well and the optical density was read at 450 nm.
The mean absorbance value for each sample was used to determine the corresponding concentration from the standard curve. Data was analyzed with “log(antagonist) vs response variable slope” under “non-linear regression analysis” using Prism5 software.

Assay [2] addresses T2, CYP17 (human testicular microsome) (Homo sapiens, UniProt P05093).
T2 construct: using microsomal fraction from human testis (Celsis Cat #S00110) as the enzyme source; tissue Celsis S00110; host or cells: human testis microsomal fraction
T2 sequence (P05093 1-508): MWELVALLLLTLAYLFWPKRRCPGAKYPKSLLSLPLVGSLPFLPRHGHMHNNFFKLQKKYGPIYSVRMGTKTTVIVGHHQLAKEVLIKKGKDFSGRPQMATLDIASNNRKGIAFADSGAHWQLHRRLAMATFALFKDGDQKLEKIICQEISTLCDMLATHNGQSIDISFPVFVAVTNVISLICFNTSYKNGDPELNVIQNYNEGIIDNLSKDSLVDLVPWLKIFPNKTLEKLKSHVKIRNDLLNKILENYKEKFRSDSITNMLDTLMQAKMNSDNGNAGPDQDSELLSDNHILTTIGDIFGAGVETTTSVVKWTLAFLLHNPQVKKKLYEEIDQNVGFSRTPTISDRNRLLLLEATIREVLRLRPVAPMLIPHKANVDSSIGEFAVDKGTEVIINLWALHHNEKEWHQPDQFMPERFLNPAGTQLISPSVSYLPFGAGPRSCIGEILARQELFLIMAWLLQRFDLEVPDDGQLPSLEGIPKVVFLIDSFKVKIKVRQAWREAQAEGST
Briefly: CYP17 enzymatic assay (% inhibition at 1 nM) (Biological Example 12). In kind it is biochemical. As to conditions: compound at 1 nM.

[3] abbreviates: HEK 293-Cyp21 cells, read-out: CYP21-HEK293 enzymatic assay IC50 (Biological Example No. 11).
The mark [4] stands for this setting: read-out: CYP17 enzymatic assay % inhibition at 1 nM (Biological Example No. 12).
Setting [5] is: HEK 293-Cyp21 cells, read-out: Biological Example No. 11: CYP21-HEK293 enzymatic assay IC50.
[6] abbreviates: read-out: Biological Example No. 12: CYP17 enzymatic assay % inhibition at 1 nM.
[7] abbreviates: HEK 293-Cyp21 stable transfected cells, read-out: CYP21-HEK293 enzymatic assay IC50 (Biological Example No. 11).

The structures appear in SMILES notation. Where two headings read alike, the source gives them in different places.

Take `Cc1cccc(C)c1C(=O)O[C@H]1CC[C@@]2(C)C(=CCC3C4=CC=C(c5cccnc5)[C@@]4(C)CCC32)C1` (stereo partly drawn) [Compound 196, (3S,10R,13S)-10,13-dimethyl-17-(pyridin-3-yl)-2,3,4,7,8,9,10,11,12,13-decahydro-1H-cyclopenta[a]phenanthren-3-yl 2,6-dimethylbenzoate]: the IC50 – broadly, the concentration needed to halve the response being measured – in assay [1] (setting [3]) was > 1 µM. Besides, in assay [2] (setting [4]), the inhibition (in general, the percentage by which the read-out fell short of the control) at 0.001 µM was < 10%.

Take `C[C@]12CCC3C(CC=C4C=CCC[C@@]43C)C1=CC=C2c1cccnc1` (stereo partly drawn) [Compound 197, 3-((10R,13S)-10,13-dimethyl-2,7,8,9,10,11,12,13-octahydro-1H-cyclopenta[a]phenanthren-17-yl)pyridine]: the IC50 in assay [1] (setting [3]) was > 1 µM. The inhibition at 0.001 µM in assay [2] (setting [4]) was in the range of 10 to 50%.

As to `Cc1cccc(C)c1C(=O)O[C@@H]1CC[C@@]2(C)C(=CCC3C4=CC=C(c5cccnc5)[C@@]4(C)CCC32)C1` (stereo partly drawn) [Compound 198, (3R,10R,13S)-10,13-dimethyl-17-(pyridin-3-yl)-2,3,4,7,8,9,10,11,12,13-decahydro-1H-cyclopenta[a]phenanthren-3-yl 2,6-dimethylbenzoate], the IC50 in assay [1] (setting [3]) was > 1 µM. Further, the inhibition at 0.001 µM in assay [2] (setting [4]) is < 10%.

For `C[C@]12CC[C@@H](NS(=O)(=O)C3CC3)CC1=CC[C@@H]1[C@@H]2CC[C@]2(C)C(c3cccnc3)=CC[C@@H]12` [Compound 228, N-((3R,10R,13S)-10,13-dimethyl-17-(pyridin-3-yl)-2,3,4,7,8,9,10,11,12,13,14,15-dodecahydro-1H-cyclopenta[a]phenanthren-3-yl)cyclopropanesulfonamide], in assay [1] (setting [3]), the IC50 is > 1 µM. Besides, in assay [2] (setting [4]), the inhibition at 0.001 µM is 10 to 50%.

Turning to `CC1=C2CCC3C4=CC=C(c5cccnc5)[C@@]4(C)CCC3[C@@]2(C)CCC1=O` (stereo partly drawn) [Compound 296, (10R,13S)-4,10,13-trimethyl-17-(pyridin-3-yl)-6,7,8,9,10,11,12,13-octahydro-1H-cyclopenta[a]phenanthren-3(2H)-one], the IC50 in assay [1] (setting [3]) was > 0.1 µM. In addition, the inhibition at 0.001 µM in assay [2] (setting [4]) is > 50%.

With `CC1C(=O)CC[C@@]2(C)C1CC[C@@H]1[C@@H]2CC[C@]2(C)C(c3cccnc3)=CC[C@@H]12` (stereo partly drawn) [Compound 303, (10R,13S)-4,10,13-trimethyl-17-(pyridin-3-yl)-4,5,6,7,8,9,10,11,12,13,14,15-dodecahydro-1H-cyclopenta[a]phenanthren-3(2H)-one], in assay [1] (setting [5]), the IC50 is > 1 µM. For the same compound, the inhibition at 0.001 µM in assay [2] (setting [6]) fell in the range of 10 to 50%.

`CC1CC2C3=CC=C(c4ccc(F)nc4)[C@@]3(C)CCC2[C@@]2(C)CCC(=O)C=C12` (stereo partly drawn) [Compound 326, (10R,13S)-17-(6-fluoropyridin-3-yl)-6,10,13-trimethyl-6,7,8,9,10,11,12,13-octahydro-1H-cyclopenta[a]phenanthren-3(2H)-one]: the IC50 in assay [1] (setting [5]) was > 1 µM. Further, the inhibition at 0.001 µM in assay [2] (setting [6]) was 10 to 50%.

On to `CC1CC2C3=CC=C(c4cncc(C(F)F)c4)[C@@]3(C)CCC2[C@@]2(C)CCC(=O)C=C12` (stereo partly drawn) [Compound 328, (10R,13S)-17-(5-(difluoromethyl)pyridin-3-yl)-6,10,13-trimethyl-6,7,8,9,10,11,12,13-octahydro-1H-cyclopenta[a]phenanthren-3(2H)-one], for which the IC50 in assay [1] (setting [5]) is > 1 µM. Also, the inhibition at 0.001 µM in assay [2] (setting [6]) is < 10%.

Turning to `C[C@]12CCC(=O)C=C1C(C1CC1)C[C@@H]1[C@@H]2CC[C@]2(C)C(c3cncc(F)c3)=CC[C@@H]12` (stereo partly drawn) [Compound 331, (10R,13S)-6-cyclopropyl-17-(5-fluoropyridin-3-yl)-10,13-dimethyl-6,7,8,9,10,11,12,13,14,15-decahydro-1H-cyclopenta[a]phenanthren-3(2H)-one], in assay [1] (setting [5]), the concentration for half-maximal inhibition (IC50) was > 1 µM. In assay [2] (setting [6]), the inhibition at 0.001 µM lay in the range of 10 to 50%.

With `CCC1CC2C(CC[C@]3(C)C(c4cccnc4)=CCC23)[C@@]2(C)CCC(=O)C=C12` (stereo partly drawn) [Compound 332, (10R,13S)-6-ethyl-10,13-dimethyl-17-(pyridin-3-yl)-6,7,8,9,10,11,12,13,14,15-decahydro-1H-cyclopenta[a]phenanthren-3(2H)-one], in assay [1] (setting [5]), the half-maximal inhibitory concentration (IC50) fell in the range of 0.01 to 0.1 µM. For the same compound, the inhibition at 0.001 µM in assay [2] (setting [6]) lay in the range of 10 to 50%.

In the case of `CCC1CC2C(CC[C@]3(C)C(c4cncc(F)c4)=CCC23)[C@@]2(C)CCC(=O)C=C12` (stereo partly drawn) [Compound 333, (10R,13S)-6-ethyl-17-(5-fluoropyridin-3-yl)-10,13-dimethyl-6,7,8,9,10,11,12,13,14,15-decahydro-1H-cyclopenta[a]phenanthren-3(2H)-one], the IC50 in assay [1] (setting [5]) is > 1 µM. The inhibition at 0.001 µM in assay [2] (setting [6]) was < 10%.

In the case of `C[C@]12CC[C@H]3[C@@H](CC4(CC4)C4=CC(=O)CC[C@@]43C)C1=CC=C2c1cncc(F)c1` [Compound 354, (10R,13S)-17-(5-fluoropyridin-3-yl)-10,13-dimethyl-1,7,8,9,10,11,12,13-octahydrospiro[cyclopenta[a]phenanthrene-6,1′-cyclopropan]-3(2H)-one], the IC50 in assay [1] (setting [7]) fell in the range of 0.01 to 0.1 µM.

`CN1CC[C@@]2(C)C(=CC1=O)CCC1C3=CC=C(c4cncc(F)c4)[C@@]3(C)CCC12` (stereo partly drawn) [Compound 392, (5aR,7aS)-8-(5-fluoropyridin-3-yl)-3,5a,7a-trimethyl-3,4,5,5a,5b,6,7,7a,11,12-decahydrocyclopenta[5,6]naphtho[1,2-d]azepin-2(10bH)-one]: the half-maximal inhibitory concentration (IC50) in assay [1] (setting [7]) was > 0.1 µM.

On to `CC1CC2C3=CC=C(c4cccnc4)[C@@]3(C)CCC2[C@@]2(C)CCN(C)C(=O)C=C12` (stereo partly drawn) [Compound 393, (5aR,7aS)-3,5a,7a,12-tetramethyl-8-(pyridin-3-yl)-3,4,5,5a,5b,6,7,7a,11,12-decahydrocyclopenta[5,6]naphtho[1,2-d]azepin-2(10bH)-one], for which, in assay [1] (setting [7]), the half-maximal inhibitory concentration (IC50) fell in the range of 0.01 to 0.1 µM.

On to `CC1CC2C3=CC=C(c4cncc(F)c4)[C@@]3(C)CCC2[C@@]2(C)CCN(C)C(=O)C=C12` (stereo partly drawn) [Compound 394, (5aR,7aS)-8-(5-fluoropyridin-3-yl)-3,5a,7a,12-tetramethyl-3,4,5,5a,5b,6,7,7a,11,12-decahydrocyclopenta[5,6]naphtho[1,2-d]azepin-2(10bH)-one], for which the half-maximal inhibitory concentration (IC50) in assay [1] (setting [7]) was > 0.1 µM.

For `CN1CC[C@@]2(C)C(=CC1=O)C1CC1[C@H]1C3=CC=C(c4cccnc4)[C@@]3(C)CC[C@@H]12` (stereo partly drawn) [Compound 396, (5aR,7aS)-3,5a,7a-trimethyl-8-(pyridin-3-yl)-3,4,5,5a,5b,6,7,7a,10b,10c,11,11a-dodecahydro-2H-cyclopenta[5,6]cyclopropa[3,4]naphtho[1,2-d]azepin-2-one], in assay [1] (setting [7]), the IC50 fell in the range of 0.01 to 0.1 µM.

Take `C[C@]12CCCN(S(C)(=O)=O)CC1CCC1C2CC[C@]2(C)C(n3cncc3C#N)=CCC12` (stereo partly drawn) [Compound 431, 1-((5aR,7aS)-5a,7a-dimethyl-2-(methylsulfonyl)-1,2,3,4,5,5a,5b,6,7,7a,10,10a,10b,11,12,12a-hexadecahydrocyclopenta[5,6]naphtho[2,1-c]azepin-8-yl)-1H-imidazole-5-carbonitrile]: the IC50 in assay [1] (setting [7]) is > 1 µM.

With `C[C@]12CCN(S(C)(=O)=O)CCC1CCC1C2CC[C@]2(C)C(n3cncc3C#N)=CCC12` (stereo partly drawn) [Compound 432, 1-((5aS,7aS)-5a,7a-dimethyl-3-(methylsulfonyl)-1,2,3,4,5,5a,5b,6,7,7a,10,10a,10b,11,12,12a-hexadecahydrocyclopenta[5,6]naphtho[1,2-d]azepin-8-yl)-1H-imidazole-5-carbonitrile], in assay [1] (setting [7]), the concentration for half-maximal inhibition (IC50) is > 1 µM.

Regarding `C[C@]12CCN(S(C)(=O)=O)CCC1CC[C@@H]1[C@@H]2CC[C@]2(C)C(n3ccnc3)=CC[C@@H]12` (stereo partly drawn) [Compound 438, (5aS,7aS)-8-(1H-imidazol-1-yl)-5a,7a-dimethyl-3-(methylsulfonyl)-1,2,3,4,5,5a,5b,6,7,7a,10,10a,10b,11,12,12a-hexadecahydrocyclopenta[5,6]naphtho[1,2-d]azepine], in assay [1] (setting [7]), the IC50 is > 1 µM.

As for `C[C@]12CCC3C(CCC4CCN(S(C)(=O)=O)CC[C@@]43C)C1=CC=C2n1ccnc1` (stereo partly drawn) [Compound 489, (5aS,7aS)-8-(1H-imidazol-1-yl)-5a,7a-dimethyl-3-(methylsulfonyl)-1,2,3,4,5,5a,5b,6,7,7a,10b,11,12,12a-tetradecahydrocyclopenta[5,6]naphtho[1,2-d]azepine], the IC50 in assay [1] (setting [7]) was > 1 µM.
